Assays:
[1] = system: H3K9AC (HT1080 cells); assay: H3K9AC Sandwich ELISA Assay in HT1080 cells (KAT2A primary cell-based screening assay); parameters: species or system Human
Method: Human fibrosarcoma cell line HT1080 was obtained from American Type Culture Collection (ATCC), Manassas, VA USA, Cat. HT-1080 (ATCC® CCL-121™). Cells were cultured in MEM (Thermo Fisher Scientific/Gibco Life Technologies Cat. #11-095-080) plus 10% (v/v) FBS (Thermo Fisher Scientific/Gibco Life Technologies Cat. #26140-079) and 1% Penicillin-Streptomycin (Thermo Fisher Scientific/Gibco Life Technologies Cat. #15070063) at 37° C. in 5% CO2.
HT1080 cells were trypsinized, cell viability count performed, and cells suspended in complete media at 100,000 cells/ml. Cells were seeded (100 μl/well) into Greiner Bio-One CELLSTAR 96-well polystyrene flat bottom cell culture microplate (Thermo Fisher Scientific Cat. #07-000-162) at a density of 10,000 cells/well. Cells were incubated for 16 hours at 37° C. at 5% CO2. Compound dilution plates were prepared in 96-well, clear U-bottom, polypropylene plates (Corning 3365) in 100% DMSO at 10 mM stock concentration in duplicate, using 10-point serial dilution (1:3). Compounds were diluted to 1:200 in growth medium and 25 μl from intermediate compound plates were added to each well of the cell plates using a Beckman FX liquid handling system such that the highest compound concentration tested was 10 μM final, with a 0.1% final DMSO concentration in the total volume of 125 μl. Plates were incubated for 24 hours at 37° C. and 5% CO2. Plates were centrifuged at 2500 rpm for 5 minutes and medium was removed. 100 μL 0.4N HCL (Thermo Fisher Scientific Cat #SA56-1) was added to each well and plates were shaken for 60 minutes at 4C to lyse cells. 38ul 0.4N Sodium phosphase dibasic pH12.5 (Thermo Fisher Scientific Cat #S375-212) containing 2 mM Sodium Butyrate (Millipore TR1008G) and 3 mM Phenylmethanesulfonyl-fluoride (Sigma 93482) was added to each well to neutralize lysates.
Cell lysate plates were mixed for 5 minutes at room temperature on shaker and immediately frozen at −80C overnight. Cell lysates were thawed and 50 μL/well was transferred to ELISA plates (Total Histone H3 mouse (Cell Signaling Technology Cat #14269) mAb-coated Corning 1×8 strip-well, white, 96-well plates (Corning 2485)). After 2 hours room temperature incubation, plates were washed six times with PBS/0.05% Tween Wash Buffer using a BioTek plate washer. 50 μL of Histone H3K9AC rabbit detection mAb (Cell Signaling Technology Cat #9649S) diluted 1:1000 in blocking buffer (Thermo Fisher Scientific Cat #37542) was added to each well and incubated for 2 hours at room temperature. After washing, 50 μL anti-rabbit IgG, HRP-Linked antibody (Cell Signaling Technology Cat #7074) diluted 1:1000 in blocking buffer was added to each well and incubated for 60 minutes at room temperature. Following incubation, plates were washed as described above. 50 μL of luminescent GLO substrate reagent (R&D System Cat #DY993) was added to each well and incubated for 10 minutes at room temperature. Plates were read on the PHERAstar plate reader using the 96-well with Luminescent reading mode. IC50 values were calculated using a four-parameter fit with GraphPad Prism version 9.5.1 or in-house modified IDBS ActivityBase data analyzing package.

[2] = biological target: KAT2A (Homo sapiens (Human), UniProt Q92830); assay: KAT2A acetyltransferase biochemical assay (RapidFire mass spectrometry, AcCoA to CoA); conditions: read-out: KAT2A Ki at 1 μM AcCoA, 5 μM H3 1-21 peptide, 0.5 nM KAT2A, 90-minute reaction
Sequence of KAT2A (Q92830 whole entry): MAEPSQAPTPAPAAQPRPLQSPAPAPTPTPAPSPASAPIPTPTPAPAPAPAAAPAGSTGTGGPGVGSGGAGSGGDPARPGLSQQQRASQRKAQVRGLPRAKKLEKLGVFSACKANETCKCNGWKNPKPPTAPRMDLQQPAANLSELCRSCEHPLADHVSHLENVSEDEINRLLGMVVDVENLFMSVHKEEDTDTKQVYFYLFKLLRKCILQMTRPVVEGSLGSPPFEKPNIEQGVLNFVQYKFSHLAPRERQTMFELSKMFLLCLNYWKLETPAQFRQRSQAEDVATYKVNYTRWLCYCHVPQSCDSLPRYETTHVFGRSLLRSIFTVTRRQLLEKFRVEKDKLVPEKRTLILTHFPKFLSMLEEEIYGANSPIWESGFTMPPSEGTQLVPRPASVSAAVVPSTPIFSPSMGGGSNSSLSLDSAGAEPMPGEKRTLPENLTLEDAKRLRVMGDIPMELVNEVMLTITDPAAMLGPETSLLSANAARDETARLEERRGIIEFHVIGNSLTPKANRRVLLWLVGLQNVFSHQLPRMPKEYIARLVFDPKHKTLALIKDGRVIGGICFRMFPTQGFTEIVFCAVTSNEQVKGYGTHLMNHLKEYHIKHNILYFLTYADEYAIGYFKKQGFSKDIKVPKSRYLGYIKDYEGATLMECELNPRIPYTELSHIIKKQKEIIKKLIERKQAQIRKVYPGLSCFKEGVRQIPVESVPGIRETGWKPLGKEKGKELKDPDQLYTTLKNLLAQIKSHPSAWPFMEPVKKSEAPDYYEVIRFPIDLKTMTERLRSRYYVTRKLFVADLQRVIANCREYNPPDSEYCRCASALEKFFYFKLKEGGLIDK
Method: • A) Compound preparation • 1) Prepare 10 mM stock solutions in 100% DMSO from solid material. • 2) Serial dilute 10 mM, 1 mM, 0.1 or 0.01 mM compound stocks 3-fold in 100% DMSO for 11-point dose response. • B) Reagent preparation • 1) Prepare 1×assay buffer containing 40 mM bis tris propane pH 8.0, 10 mM NaCl, 0.5 mM EDTA, and 0.002% Tween-20. • 2) Dilute Histone peptide (CPC Scientific) and KAT enzyme together in assay buffer to 1.25×. • 3) Dilute AcCoA (Sigma) in assay buffer to 5×. • C) Enzyme reaction • 1) Final reaction conditions for each KAT assay in a 100ul assay reaction volume: • i) KAT2A 0.5 nM, 1 uM AcCoA, 5 uM H3 1-21 peptide, 90-minute reaction • ii) KAT2B 0.5 nM, 1 uM AcCoA, 5 uM H3 1-21 peptide, 90-minute reaction • 2) Add 2 ul of diluted compound series to the assay plate (96-well round-bottom polypropylene plates) or 2 ul of DMSO for control wells. • 3) Add 11 μL of 10% formic acid to 100% effect (HPE) control wells. • 4) Add 80 ul of 1.25× Histone peptide/KAT mix to the assay plate via Multidrop Combi (ThermoFisher). Incubate 15 min at room temperature. • 5) Add 20 ul of 5× AcCoA to the assay plate via Multidrop Combi. • 6) Stop the reaction after the indicated time with the addition of 11 ul of 10% formic acid via Multidrop Combi. • 7) Each reaction was analyzed using Rapid Fire mass spectrometry platform.
KAT enzymes were expressed using a baculovirus expression system and purified at Pfizer, La Jolla. […] Acetyl coenzyme A was purchased from Sigma-Aldrich (St. Louis, MO). All other biochemical reagents were purchased from Sigma-Aldrich or ThermoFisher Scientific (Waltham, MA).
KAT assays were performed at room temperature in assay buffer containing 1 μM AcCoA, 5 μM histone peptide, 40 mM bis tris propane pH 8.0, 10 mM NaCl, 0.5 mM EDTA 0.002% Tween-20. 80 ul of 1.25× Histone peptide/enzyme mix was added to a 96-well round-bottom polypropylene assay plate containing 2 ul of serially diluted test compound in 100% dimethyl sulfoxide (DMSO). To start the reaction, 20 ul of 5× AcCoA solution was added to the assay plate. KAT assays were terminated after 90 minutes with the addition of 11 ul of 10% formic acid. All assays used histone H3 (1-21) peptide. The final enzyme concentration for each KAT was as follows: KAT2A, 0.5 nM; KAT2B, 0.5 nM. […] Each reaction was analyzed using Rapid Fire mass spectrometry platform. This methodology leverages an Agilent 6495 triple quadrupole (QQQ) mass spectrometer coupled to a RapidFire model 365 to specifically capture and measure KAT2 acetyltransferase activity, converting AcCoA (substrate) to CoA (product).
Area under the curve (AUC) for both substrate and product peaks was determined for KAT2 at M.W. 809.6 [Substrate+H]+ and 767.3 [Product+H]+ with a +/−1 Da tolerance, respectively. Acetyltransferase activity (% of DMSO control) was calculated by: ((AUCProduct/AUCsubstrate)-AUCHPE)/(AUCZPE-AUCHPE))*100. Ki values were determined by fitting the % acetyltransferase activity at each inhibitor concentration to the Morrison equation for tightbinding competitive inhibitors using Pfizer proprietary curve fitting software.
To determine the inhibition of KAT enzymatic activity by test compounds, assay reactions were conducted in a volume of 100 μL in 96-well round-bottom polypropylene assay plate. The reactions were performed in assay buffer (40 mM bis tris propane, pH 8, 10 mM NaCl, 0.5 mM EDTA, 0.002% Tween-20).

[3] = Homo sapiens, HT-1080, H3K9AC sandwich ELISA

Row | SMILES | IC50 ([1]; H3K9AC sandwich ELISA) | Ki [2] | IC50 [1, 3]
1 | CC1(C)CNC[C@](F)(C(=O)N[C@@H]2CC[C@@H](Oc3cccc(CC(=O)O)c3-c3cccc(F)c3C3CCC3)C2)C1 (atropisomer, axis not shown) [Example H12, [(1 ψ)-2′-cyclobutyl-3′-fluoro-6-{[(1R,3R)-3-{[(3ξ)-3-fluoro-5,5-dimethylpiperidine-3-carbonyl]amino}cyclopentyl]oxy}[1,1′-biphenyl]-2-yl]acetic acid] | > 1000 nM | > 99.9 nM | 
2 | CC1(C)CNC[C@](F)(C(=O)N[C@@H]2CC[C@@H](Oc3cccc(CC(=O)O)c3-c3cccc(F)c3C3CCC3)C2)C1 (atropisomer, axis not shown) [Example H13, [(1 ψ)-2′-cyclobutyl-3′-fluoro-6-{[(1R,3R)-3-{[(3ξ)-3-fluoro-5,5-dimethylpiperidine-3-carbonyl]amino}cyclopentyl]oxy}[1,1′-biphenyl]-2-yl]acetic acid] | 9.7 nM |  | 
3 | CN1CC(C)(C)C[C@H]1C(=O)N[C@@H]1CC[C@@H](Oc2cccc(C(=O)NS(C)(=O)=O)c2-c2cccc(F)c2C2CCC2)C1 (atropisomer, axis not shown) [Example I1, N-[(1R,3R)-3-({(1Ψ)-2′-cyclobutyl-3′-fluoro-6-[(methanesulfonyl)carbamoyl][1,1′-biphenyl]-2-yl}oxy)cyclopentyl]-1,4,4-trimethyl-L-prolinamide] |  | 24.5 nM | 41.9 nM
4 | CN1CC(C)(C)C[C@H]1C(=O)N[C@@H]1CC[C@@H](Oc2cccc(CC(=O)NS(C)(=O)=O)c2-c2ccccc2C2CCC2)C1 (atropisomer, axis not shown) [Example I3, N-[(1R,3R)-3-{[(1ψ)-2′-cyclobutyl-6-{2-[(methanesulfonyl)amino]-2-oxoethyl}[1,1′-biphenyl]-2-yl]oxy}cyclopentyl]-1,4,4-trimethyl-L-prolinamide] | > 6680 nM | 1430 nM | 
5 | CN1CC(C)(C)C[C@H]1C(=O)N[C@@H]1CC[C@@H](Oc2cccc(C(=O)NS(=O)(=O)N(C)C)c2-c2cccc(F)c2C2CCC2)C1 (atropisomer, axis not shown) [Example I7, N-[(1R,3R)-3-({(1ψ)-2′-cyclobutyl-6-[(dimethylsulfamoyl)carbamoyl]-3′-fluoro[1,1′-biphenyl]-2-yl}oxy)cyclopentyl]-1,4,4-trimethyl-L-prolinamide] |  | 24.4 nM | 41.4 nM
6 | CN1CC2(CCCC2)C[C@@H]1C(=O)N[C@@H]1CC[C@@H](Oc2cccc(C(=O)NS(C)(=O)=O)c2-c2cccc(F)c2C2CCC2)C1 (atropisomer, axis not shown) [Example I11, (3ξ)-N-[(1R,3R)-3-({(1ψ)-2′-cyclobutyl-3′-fluoro-6-[(methanesulfonyl)carbamoyl][1,1′-biphenyl]-2-yl}oxy)cyclopentyl]-2-methyl-2-azaspiro[4.4]nonane-3-carboxamide] |  | 163 nM | 3130 nM
7 | CN(C)S(=O)(=O)NC(=O)Cc1cccc(O[C@@H]2CC[C@@H](NC(=O)[C@@]3(F)CNC4(CCC4)C3)C2)c1-c1cccc(F)c1C1CCC1 (atropisomer, axis not shown) [Example I15, (7S)-N-[(1R,3R)-3-({(1ψ)-2′-cyclobutyl-6-[2-(dimethylsulfamamido)-2-oxoethyl]-3′-fluoro[1,1′-biphenyl]-2-yl}oxy)cyclopentyl]-7-fluoro-5-azaspiro[3.4]octane-7-carboxamide] | > 1000 nM | > 99.9 nM | 
8 | CC(C)S(=O)(=O)NC(=O)Cc1cccc(O[C@@H]2CC[C@@H](NC(=O)[C@@]3(F)CNC4(CCC4)C3)C2)c1-c1cccc(F)c1C1CCC1 (atropisomer, axis not shown) [Example I18, (7S)-N-[(1R,3R)-3-({(1ψ)-2′-cyclobutyl-3′-fluoro-6-[2-oxo-2-(propane-2-sulfonamido)ethyl][1,1′-biphenyl]-2-yl}oxy)cyclopentyl]-7-fluoro-5-azaspiro[3.4]octane-7-carboxamide] | > 1000 nM | > 99.9 nM | 
9 | CC(C)S(=O)(=O)NC(=O)c1cccc(O[C@@H]2CC[C@@H](NC(=O)[C@@]3(F)CNC4(CCC4)C3)C2)c1-c1cccc(F)c1C1CCC1 (atropisomer, axis not shown) [Example I19, (7S)-N-[(1R,3R)-3-({(1ψ)-2′-cyclobutyl-3′-fluoro-6-[(propane-2-sulfonyl)carbamoyl][1,1′-biphenyl]-2-yl}oxy)cyclopentyl]-7-fluoro-5-azaspiro[3.4]octane-7-carboxamide] |  | 13.7 nM | 7.1 nM
10 | CN1CC(C)(C)C[C@H]1C(=O)N[C@H]1C[C@H](Oc2cccc(CC(=O)O)c2-c2cccc(F)c2C2CCC2)C[C@H]1O (atropisomer, axis not shown) [Example K5, [(1ψ)-2′-cyclobutyl-3′-fluoro-6-({(1S,3R,4S)-3-hydroxy-4-[(1,4,4-trimethyl-L-prolyl)amino]cyclopentyl}oxy)[1,1′-biphenyl]-2-yl]acetic acid] | 489 nM | 75.7 nM | 
11 | CN1CC(C)(C)C[C@H]1C(=O)N[C@H]1C[C@H](Oc2cccc(CC(=O)O)c2-c2cccc(F)c2C2CCC2)C[C@H]1O (atropisomer, axis not shown) [Example K6, [(1ψ)-2′-cyclobutyl-3′-fluoro-6-({(1S,3R,4S)-3-hydroxy-4-[(1,4,4-trimethyl-L-prolyl)amino]cyclopentyl}oxy)[1,1′-biphenyl]-2-yl]acetic acid] | 5.73 nM | 1.13 nM | 
12 | CC1(C)C[C@@](F)(C(=O)N[C@@H]2CC[C@@H](Oc3ccc(C(C)(C)C(=O)O)cc3-c3cccc(F)c3C3CCC3)C2)CN1 (single isomer, unassigned) [Example A3] |  | 1440 nM | > 10000 nM
13 | CC[C@](C)(C(=O)O)c1ccc(O[C@@H]2CC[C@@H](NC(=O)[C@]3(F)CNC4(CCC4)C3)C2)c(-c2cccc(F)c2C2CCC2)c1 (single isomer, unassigned) [Example A10] | > 1000 nM | > 1000 nM | 
14 | CC[C@](C)(C(=O)O)c1ccc(O[C@@H]2CC[C@@H](NC(=O)[C@]3(F)CNC4(CCC4)C3)C2)c(-c2cccc(F)c2C2CCC2)c1 (single isomer, unassigned) [Example A11] | > 1000 nM | > 1000 nM | 
15 | CC1(C)C[C@@](F)(C(=O)N[C@@H]2CC[C@@H](Oc3ccc(C(=O)O)cc3-c3cccc(F)c3C3CCC3)C2)CN1 (single isomer, unassigned) [Example A13] | > 1000 nM | 96 nM | 
16 | CC1(C)CNC[C@](F)(C(=O)N[C@@H]2CC[C@@H](Oc3ccc(C(C)(C)C(=O)O)cc3-c3cccc(F)c3C3CCC3)C2)C1 (single isomer, unassigned) [Example A15] | 296 nM | > 1000 nM | 
17 | O=C(O)Cc1ccc(O[C@@H]2CC[C@@H](NC(=O)[C@@]3(F)CNC4(CCCC4)C3)C2)c(-c2cccc(F)c2C2CCC2)c1 (single isomer, unassigned) [Example A26] | 95.6 nM | 29.1 nM | 
18 | CC(C)(C(=O)O)c1ccc(O[C@@H]2CC[C@@H](NC(=O)[C@@]3(F)CNCC4(CCC4)C3)C2)c(-c2cccc(F)c2C2CCC2)c1 (single isomer, unassigned) [Example A28] | 53.6 nM | 1.41 nM | 
19 | CCC1(CC)C[C@@](F)(C(=O)N[C@@H]2CC[C@@H](Oc3ccc(C(C)(C)C(=O)O)cc3-c3cccc(F)c3C3CCC3)C2)CN1 (single isomer, unassigned) [Example A30] | > 1000 nM |  | 
20 | CCC1(CC)C[C@@](F)(C(=O)N[C@@H]2CC[C@@H](Oc3ccc(C(C)(C)C(=O)O)cc3-c3cccc(F)c3C3CCC3)C2)CN1 (single isomer, unassigned) [Example A31] | 9.3 nM |  | 
21 | O=C(O)c1ccc(O[C@@H]2CC[C@@H](NC(=O)[C@@]3(F)CNCC4(CCC4)C3)C2)c(-c2cccc(F)c2C2CCC2)c1 (single isomer, unassigned) [Example A33] | > 1000 nM | > 99.9 nM | 

— patent US20250188030A1, “Biphenyl and Phenylpyridine Compounds” (Pfizer Inc., priority 2023, published 2025)
